Our source for the TGI values is PubChem BioAssay (NCI).

Test systems include CCRF-CEM leukemia; SNB-75 CNS; NCI-H23 lung; MDA-MB-231 breast; OVCAR-8 ovarian; SF-295 CNS; UACC-62 melanoma; SF-268 CNS; SK-MEL-2 melanoma; MDA-N; LOX IMVI melanoma; MCF7 breast; TK-10 renal; CAKI-1 renal; SN12C renal; HCC-2998 colon; DU-145 prostate; NCI-H226 lung; EKVX NSCLC.
What all share (test): DTP human tumour cell line panel, 48 h

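Briefly, cells in 96-well plates were exposed to five compound concentrations for 48 h, and endpoints were estimated by linear interpolation. TGI is the concentration that stops growth completely.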

As usually defined, the TGI is the concentration giving total growth inhibition. Read a high TGI as less potent growth arrest. `Cc1ccc(SCC(OCn2cnc3c(Cl)nc(N)nc32)[C@H](C)F)cc1` (stereo partly specified): the concentration for total growth inhibition (TGI) in the assay on CCRF-CEM leukemia, in the assay with SNB-75 CNS, in the assay with NCI-H23 lung, in the assay on MDA-MB-231 breast, in the assay on OVCAR-8 ovarian and in the assay on SF-295 CNS was above 100 µM each time. The concentration for total growth inhibition (TGI) in the assay on UACC-62 melanoma, in the assay on SF-268 CNS, in the assay with SK-MEL-2 melanoma, in the assay on MDA-N, in the assay on LOX IMVI melanoma and with MCF7 breast was above 100 µM throughout. Moreover, the TGI in the assay with TK-10 renal, in the assay with CAKI-1 renal, with SN12C renal, in the assay on HCC-2998 colon, in the assay with DU-145 prostate and in the assay with NCI-H226 lung was above 100 µM throughout.

`CC(=O)NC1(C)C(C)C2CC1C(C)C2(C)C` (stereo unspecified): the TGI in the assay with CCRF-CEM leukemia, in the assay with SNB-75 CNS, in the assay on NCI-H23 lung, in the assay on MDA-MB-231 breast, in the assay with OVCAR-8 ovarian and in the assay on SF-295 CNS was above 100 µM in each case. Also, the concentration for total growth inhibition (TGI) in the assay with UACC-62 melanoma, in the assay with SF-268 CNS, in the assay with MDA-N, with EKVX NSCLC, with MCF7 breast and in the assay on TK-10 renal was above 100 µM each time. The TGI with CAKI-1 renal, with SN12C renal, with HCC-2998 colon, with DU-145 prostate and in the assay with NCI-H226 lung was above 100 µM throughout.

As for `O=C(Nc1ccc2cc3ccccc3cc2c1)c1cc2c(cc1Cl)Sc1nccn1S2(=O)=O`, the concentration for total growth inhibition (TGI) in the assay on SNB-75 CNS was 81.2 µM; in the assay on NCI-H23 lung it was above 100 µM; with MDA-MB-231 breast, 60.1 µM; with OVCAR-8 ovarian it was above 100 µM; with SF-295 CNS it was above 100 µM; in the assay with UACC-62 melanoma, above 100 µM. The TGI with SF-268 CNS is 97.6 µM; in the assay on SK-MEL-2 melanoma, above 100 µM; with MDA-N, above 100 µM; in the assay with EKVX NSCLC it was above 100 µM; in the assay on LOX IMVI melanoma, above 100 µM; with MCF7 breast, above 100 µM. For the same compound, the TGI with TK-10 renal was 70.7 µM; in the assay with CAKI-1 renal it was above 100 µM; in the assay on SN12C renal, above 100 µM; with HCC-2998 colon, 95.8 µM; with DU-145 prostate, above 100 µM; in the assay on NCI-H226 lung, above 100 µM.

As to `CCOC(=O)C1(C(=O)OCC)C=C(c2ccccc2)N(C2OC(COC(C)=O)C(OC(C)=O)C(OC(C)=O)C2OC(C)=O)C1=S` (stereo unspecified), the total growth inhibition concentration (TGI) with CCRF-CEM leukemia, in the assay on NCI-H23 lung, with MDA-MB-231 breast, in the assay with OVCAR-8 ovarian, in the assay with SF-295 CNS and with UACC-62 melanoma was above 100 µM throughout. Further, the TGI in the assay with SF-268 CNS, in the assay with SK-MEL-2 melanoma, with MDA-N, in the assay with EKVX NSCLC, with LOX IMVI melanoma and with MCF7 breast was above 100 µM each time. The TGI with CAKI-1 renal, in the assay with SN12C renal, in the assay with HCC-2998 colon, in the assay with DU-145 prostate and with NCI-H226 lung was above 100 µM each time.

`C/C(O)=C(\C=NC(=S)c1ccncc1)C(=O)Nc1ccccc1C`: the TGI with SNB-75 CNS, in the assay on NCI-H23 lung, with MDA-MB-231 breast, in the assay with OVCAR-8 ovarian, with SF-295 CNS and with UACC-62 melanoma was above 100 µM each time. Moreover, the TGI in the assay with SF-268 CNS, with SK-MEL-2 melanoma, in the assay with MDA-N, with EKVX NSCLC, in the assay with LOX IMVI melanoma and with MCF7 breast was above 100 µM each time. Also, the TGI with TK-10 renal, in the assay on CAKI-1 renal, with SN12C renal, with HCC-2998 colon, in the assay on DU-145 prostate and with NCI-H226 lung was above 100 µM in each case.

For the compound `O=C1C(Cl)=C(NCCF)C(=O)c2ncccc21`, the TGI in the assay on CCRF-CEM leukemia is 0.806 µM; in the assay on SNB-75 CNS, 2.6 µM; with NCI-H23 lung it was 3.51 µM; in the assay on MDA-MB-231 breast, 4 µM; in the assay with OVCAR-8 ovarian it was 4.55 µM; in the assay on SF-295 CNS it was 3.21 µM. The TGI was 2.68 µM in the assay with UACC-62 melanoma; 4.22 µM in the assay with SF-268 CNS; 4.23 µM in the assay with SK-MEL-2 melanoma; 0.392 µM in the assay with MDA-N; 3.08 µM in the assay on EKVX NSCLC; 2.26 µM in the assay with LOX IMVI melanoma. Moreover, the TGI in the assay on MCF7 breast was found to be 3.54 µM; in the assay with TK-10 renal, 3.65 µM; with SN12C renal, 3.35 µM; with HCC-2998 colon, 2.71 µM; with DU-145 prostate, 2.99 µM; in the assay with NCI-H226 lung it was 3.99 µM.

As to `CCOc1cc(-c2nc3cc(F)ccc3s2)ccc1O`, the TGI in the assay with CCRF-CEM leukemia came out at 18 µM; in the assay on NCI-H23 lung, 33.8 µM; in the assay on MDA-MB-231 breast, 48.4 µM; in the assay on OVCAR-8 ovarian it was 31.2 µM; in the assay with SF-295 CNS, 35.2 µM; with UACC-62 melanoma, 31.6 µM. The TGI in the assay with SF-268 CNS was found to be 31.2 µM; with SK-MEL-2 melanoma, 31.5 µM; with MDA-N, 31.7 µM; in the assay on EKVX NSCLC, 24.4 µM; with LOX IMVI melanoma it was 33.4 µM; with MCF7 breast it was 23 µM. In addition, the concentration for total growth inhibition (TGI) stood at 34 µM with TK-10 renal; 32.2 µM in the assay on CAKI-1 renal; 35.6 µM with SN12C renal; 41.6 µM with HCC-2998 colon; 32.2 µM in the assay with DU-145 prostate; 34.2 µM in the assay with NCI-H226 lung.

Turning to `COc1ccc2c(c1OC)C(=O)O[C@@H]2[C@H]1c2c(cc3c(c2OC)OCO3)CCN1C`, the concentration for total growth inhibition (TGI) in the assay with CCRF-CEM leukemia is above 100 µM; in the assay on SNB-75 CNS, 34 µM; with NCI-H23 lung, above 100 µM; with MDA-MB-231 breast, above 100 µM; in the assay with OVCAR-8 ovarian, above 100 µM; in the assay on SF-295 CNS, above 100 µM. The TGI in the assay with UACC-62 melanoma, with SF-268 CNS, in the assay on SK-MEL-2 melanoma, in the assay on MDA-N, with LOX IMVI melanoma and with MCF7 breast was above 100 µM in each case. Moreover, the TGI in the assay on CAKI-1 renal, with SN12C renal, with HCC-2998 colon, with DU-145 prostate and with NCI-H226 lung was above 100 µM each time.
